Experimental data reported in patent US20140057915A1, “KINASE INHIBITORS” (TOPIVERT PHARMA LIMITED, priority 2012, published 2014).

Columns and labels:
cSrc = cSrc (Homo sapiens, UniProt P12931); assay: c-Src enzyme inhibition (FRET); type: biochemical; conditions: Table 4a1
Summary of the method: (§1)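 Kinase activity is measured on a dual-labelled synthetic peptide by FRET. ATP is supplied as an 800 μM solution for c-Src and a 60 μM solution for Syk. Compound is tested at four added concentrations, 4 to 0.004 μg/mL.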

d-U937 cells = assay: Cell viability: MTT assay; type: cell-based, human; conditions: 1 μg/mL
Summary of the method: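 MTT reduction (1 h, DMSO solubilisation, A550) measured after compound treatment at 1 or 10 μg/mL of differentiated U937 cells for 4 h (5% FCS RPMI1640) or 24 h (10% FCS). Percentage viability loss computed relative to 0.5% DMSO vehicle, with increases tabulated as negative values.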

[1] = tested on: IL-8 release, d-U937 cells; assay: LPS-induced IL-8 release in d-U937 cells; type: cell-based; conditions: Homo sapiens, dU937; Table 4c1; read-out: LPS Induced Release of Cytokine in d-U937 Cells, IL-8 IC50
Summary of the method: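 IL-8 release after a 4 hr challenge with LPS (0.1 μg/mL, E. coli 0111:B4) following a 2 hr compound pretreatment. Cells were human U937 monocytes differentiated to macrophage-type with PMA 100 ng/mL for 48–72 hr. Relative 50% effective concentration derived from concentration–response data.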

GSK3α = GSK3α (Homo sapiens, UniProt P49840); assay: GSK 3α enzyme inhibition (FRET), Method 1; type: biochemical; conditions: Table 4a1
Sequence of GSK3α (P49840 whole entry): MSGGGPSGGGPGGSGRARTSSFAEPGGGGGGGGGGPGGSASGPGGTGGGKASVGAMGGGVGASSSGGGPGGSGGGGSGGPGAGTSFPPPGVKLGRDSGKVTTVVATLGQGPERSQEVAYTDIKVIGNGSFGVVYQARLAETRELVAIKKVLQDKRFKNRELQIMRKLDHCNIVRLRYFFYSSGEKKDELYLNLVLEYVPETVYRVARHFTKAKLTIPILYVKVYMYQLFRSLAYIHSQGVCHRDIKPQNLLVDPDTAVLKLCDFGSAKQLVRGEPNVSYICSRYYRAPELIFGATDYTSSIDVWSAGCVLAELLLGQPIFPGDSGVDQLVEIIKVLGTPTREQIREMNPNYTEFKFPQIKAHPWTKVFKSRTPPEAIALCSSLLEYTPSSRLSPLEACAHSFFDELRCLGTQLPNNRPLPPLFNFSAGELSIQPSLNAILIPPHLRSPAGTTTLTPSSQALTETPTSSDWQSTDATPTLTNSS
Summary of the method: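 Steps: preincubate GSK3α with compound 2 hr at room temperature; start reaction with peptide and ATP for 1 hr; develop with site-specific protease for 1 hr; measure fluorescence and take the coumarin/fluorescein ratio as the phosphorylation level.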

[2] = tested on: TNFα release, d-U937 cells; assay: LPS-induced TNFα release in d-U937 cells; type: cell-based; conditions: Homo sapiens, dU937; relative to 10 μg/mL BIRB796; Table 4c1; read-out: LPS Induced Release of Cytokine in d-U937 Cells, TNFα REC50
Summary of the method: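 Sandwich ELISA quantifies cytokine in supernatants after 4 hr LPS challenge (0.1 μg/mL) of PMA-differentiated (100 ng/mL, 48–72 hr) U937 macrophages given compound 2 hr beforehand. REC50 derived from concentration-response curve, inhibition calculated relative to vehicle.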

Syk = Syk (Homo sapiens, UniProt P43405); assay: Syk enzyme inhibition (FRET); type: biochemical; conditions: Table 4a1
Summary of the method: as §1

[3] = tested on: ICAM-1 expression, BEAS2B cells; assay: Poly I:C-induced ICAM-1 expression in BEAS2B cells; type: cell-based; conditions: Homo sapiens, BEAS-2B; read-out: Poly IC induced ICAM1 in BEAS2B, IC50
Summary of the method: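 Cell-based ELISA for surface ICAM-1 in human BEAS2B cells 18 h after transfection with the RNA-virus mimic poly I:C (1 μg/mL, with Oligofectamine), compounds added 2 h beforehand. OD450–655 divided by Crystal Violet OD595 per well; percent inhibition relative to vehicle.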

Sequence of cSrc (P12931 whole entry): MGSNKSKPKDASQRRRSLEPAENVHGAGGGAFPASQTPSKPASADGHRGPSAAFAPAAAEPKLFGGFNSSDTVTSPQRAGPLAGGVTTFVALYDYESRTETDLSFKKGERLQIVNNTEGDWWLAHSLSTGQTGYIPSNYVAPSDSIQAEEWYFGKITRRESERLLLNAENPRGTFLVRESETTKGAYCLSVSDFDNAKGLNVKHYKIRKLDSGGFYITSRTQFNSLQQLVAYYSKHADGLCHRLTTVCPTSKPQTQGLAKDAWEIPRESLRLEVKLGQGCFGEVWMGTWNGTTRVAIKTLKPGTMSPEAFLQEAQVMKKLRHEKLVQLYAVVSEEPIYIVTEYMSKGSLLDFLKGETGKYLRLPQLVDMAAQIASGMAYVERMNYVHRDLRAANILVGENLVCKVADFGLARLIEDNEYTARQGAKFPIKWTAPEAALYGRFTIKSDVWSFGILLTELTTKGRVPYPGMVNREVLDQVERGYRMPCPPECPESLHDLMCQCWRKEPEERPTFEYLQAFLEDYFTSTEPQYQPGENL

Row | Structure (SMILES) | IC50 (cSrc) | IC50 [1] | IC50 (GSK3α) | EC50 [2] | IC50 (Syk) | Cell viability at time point in d-U937 cells, 4 h (d-U937 cells) | Cell viability at time point in d-U937 cells, 24 h (d-U937 cells) | IC50 [3]
1 | Cc1ccc(-n2nc(C(C)(C)C)cc2NC(=O)Nc2ccc(Oc3ccnc(Nc4cccc(C(=O)NCCN5CCN(C)CC5)c4)n3)c3ccccc23)cc1 [Example 25, 3-((4-((4-(3-(3-(tert-butyl)-1-(p-tolyl)-1H-pyrazol-5-yl)ureido)naphthalen-1-yl)oxy)pyrimidin-2-yl)amino)-N-(2-(4-methylpiperazin-1-yl)ethyl)benzamide] | 4 nM | 1.5 nM | 285 nM | 0.6 nM | > 1330 nM | −ve (−ve and +ve indicate that the value is below and above respectively, the no significant effect threshold, defined as 30% inhibition at 1 μg/mL at the time point indicated) | −ve (−ve and +ve indicate that the value is below and above respectively, the no significant effect threshold, defined as 30% inhibition at 1 μg/mL at the time point indicated) | 1.9 nM
2 | Cc1ccc(-n2nc(C(C)(C)C)cc2NC(=O)Nc2ccc(Oc3ccnc(Nc4cccc(C(=O)N(C)C)c4)n3)c3ccccc23)cc1 [Example 26, 3-((4-((4-(3-(3-(tert-butyl)-1-(p-tolyl)-1H-pyrazol-5-yl)ureido)naphthalen-1-yl)oxy)pyrimidin-2-yl)amino)-N,N-dimethylbenzamide] | 6 nM | 2.3 nM | 390 nM | 0.5 nM | 14 nM | −ve (−ve and +ve indicate that the value is below and above respectively, the no significant effect threshold, defined as 30% inhibition at 1 μg/mL at the time point indicated) | −ve (−ve and +ve indicate that the value is below and above respectively, the no significant effect threshold, defined as 30% inhibition at 1 μg/mL at the time point indicated) | 11.1 nM
3 | Cc1ccc(-n2nc(C(C)(C)C)cc2NC(=O)Nc2ccc(Oc3ccnc(Nc4cccc(C(=O)N5CCOCC5)c4)n3)c3ccccc23)cc1 [Example 27, 1-(3-(tert-butyl)-1-(p-tolyl)-1H-pyrazol-5-yl)-3-(4-((2-((3-(morpholine-4-carbonyl)phenyl)amino)pyrimidin-4-yl)oxy)naphthalen-1-yl)urea] | 4 nM | 4.1 nM | 311 nM | 1.4 nM | 39 nM | −ve (−ve and +ve indicate that the value is below and above respectively, the no significant effect threshold, defined as 30% inhibition at 1 μg/mL at the time point indicated) | −ve (−ve and +ve indicate that the value is below and above respectively, the no significant effect threshold, defined as 30% inhibition at 1 μg/mL at the time point indicated) | 11.6 nM
4 | COc1ccc(C(=O)NCCO)cc1Nc1nccc(Oc2ccc(NC(=O)Nc3cc(C(C)(C)C)nn3-c3ccc(C)cc3)c3ccccc23)n1 [Example 33, 3-((4-((4-(3-(3-(tert-butyl)-1-(p-tolyl)-1H-pyrazol-5-yl)ureido)naphthalen-1-yl)oxy)pyrimidin-2-yl)amino)-N-(2-hydroxyethyl)-4-methoxybenzamide] | 3 nM | 4.2 nM | > 14300 nM | 1.5 nM | 98 nM | −ve (−ve and +ve indicate that the value is below and above respectively, the no significant effect threshold, defined as 30% inhibition at 1 μg/mL at the time point indicated) | −ve (−ve and +ve indicate that the value is below and above respectively, the no significant effect threshold, defined as 30% inhibition at 1 μg/mL at the time point indicated) | 143 nM

Further lines, with some results ahead:

Row | IC50 (cSrc) | IC50 [1] | IC50 (GSK3α) | EC50 [2] | IC50 (Syk) | Structure (SMILES) | Cell viability at time point in d-U937 cells, 4 h (d-U937 cells) | Cell viability at time point in d-U937 cells, 24 h (d-U937 cells) | IC50 [3]
5 | 1 nM | 0.3 nM | 207 nM | 1.4 nM | 14 nM | Cc1csc(-n2nc(C(C)(C)C)cc2NC(=O)Nc2ccc(Oc3ccnc(Nc4cccc(C(=O)NCCN5CCOCC5)c4)n3)c3ccccc23)c1 [Example 24, 3-((4-((4-(3-(3-(tert-butyl)-1-(4-methylthiophen-2-yl)-1H-pyrazol-5-yl)ureido)naphthalen-1-yl)oxy)pyrimidin-2-yl)amino)-N-(2-morpholinoethyl)benzamide] | −ve (−ve and +ve indicate that the value is below and above respectively, the no significant effect threshold, defined as 30% inhibition at 1 μg/mL at the time point indicated) | −ve (−ve and +ve indicate that the value is below and above respectively, the no significant effect threshold, defined as 30% inhibition at 1 μg/mL at the time point indicated) | 1 nM
6 | < 1 nM | 32.4 nM | > 14000 nM | 2.2 nM | 54 nM | COc1ccc(C(=O)NCCN(C)C)cc1Nc1nccc(Oc2ccc(NC(=O)Nc3cc(C(C)C)nn3-c3ccc(C)cc3)c3ccccc23)n1 [Example 28, N-(2-(dimethylamino)ethyl)-3-((4-((4-(3-(3-isopropyl-1-(p-tolyl)-1H-pyrazol-5-yl)ureido)naphthalen-1-yl)oxy)pyrimidin-2-yl)amino)-4-methoxybenzamide] | −ve (−ve and +ve indicate that the value is below and above respectively, the no significant effect threshold, defined as 30% inhibition at 1 μg/mL at the time point indicated) | −ve (−ve and +ve indicate that the value is below and above respectively, the no significant effect threshold, defined as 30% inhibition at 1 μg/mL at the time point indicated) | 140 nM
7 | 3 nM | 7.1 nM | 9630 nM | 2.8 nM | 51 nM | COc1ccc(C(=O)NCCN2CCOCC2)cc1Nc1nccc(Oc2ccc(NC(=O)Nc3cc(C(C)(C)C)nn3-c3ccc(C)cc3)c3ccccc23)n1 [Example 31, 3-((4-((4-(3-(3-(tert-butyl)-1-(p-tolyl)-1H-pyrazol-5-yl)ureido)naphthalen-1-yl)oxy)pyrimidin-2-yl)amino)-4-methoxy-N-(2-morpholinoethyl)benzamide] | −ve (−ve and +ve indicate that the value is below and above respectively, the no significant effect threshold, defined as 30% inhibition at 1 μg/mL at the time point indicated) | −ve (−ve and +ve indicate that the value is below and above respectively, the no significant effect threshold, defined as 30% inhibition at 1 μg/mL at the time point indicated) | 12 nM
8 | < 2 nM | 17.1 nM | > 14600 nM | 3.1 nM | 152 nM | COc1ccc(C(=O)NCCO)cc1Nc1nccc(Oc2ccc(NC(=O)Nc3cc(C(C)C)nn3-c3ccc(C)cc3)c3ccccc23)n1 [Example 32, N-(2-hydroxyethyl)-3-((4-((4-(3-(3-isopropyl-1-(p-tolyl)-1H-pyrazol-5-yl)ureido)naphthalen-1-yl)oxy)pyrimidin-2-yl)amino)-4-methoxybenzamide] | −ve (−ve and +ve indicate that the value is below and above respectively, the no significant effect threshold, defined as 30% inhibition at 1 μg/mL at the time point indicated) | −ve (−ve and +ve indicate that the value is below and above respectively, the no significant effect threshold, defined as 30% inhibition at 1 μg/mL at the time point indicated) | 86.7 nM
9 | 2 nM | 73.5 nM | > 14200 nM | 14.2 nM | 85 nM | COc1ccc(-n2nc(C(C)C)cc2NC(=O)Nc2ccc(Oc3ccnc(Nc4cc(C(=O)NCCO)ccc4OC)n3)c3ccccc23)cc1 [Example 34, N-(2-hydroxyethyl)-3-((4-((4-(3-(3-isopropyl-1-(4-methoxyphenyl)-1H-pyrazol-5-yl)ureido)naphthalen-1-yl)oxy)pyrimidin-2-yl)amino)-4-methoxybenzamide] | +ve (−ve and +ve indicate that the value is below and above respectively, the no significant effect threshold, defined as 30% inhibition at 1 μg/mL at the time point indicated) | −ve (−ve and +ve indicate that the value is below and above respectively, the no significant effect threshold, defined as 30% inhibition at 1 μg/mL at the time point indicated) | 79.9 nM
